Values quoted from earlier work in PMC2692938 (Nuclear medicine and biology, 2009).

Tested on: αvβ3
Conditions: selective αvβ3 antagonist

**Q.** For c(RGDfV), which IC50 values is on record?
**A.** Its IC50 values is “lower nanomolar range”.
